Data: PMC6015222, “Targeting Phosphopeptide Recognition by the Human BRCA1 Tandem BRCT Domain to Interrupt BRCA1-Dependent Signaling” (Cell Chemical Biology, 2018)
Values joined by “and” are separate entries in the source; they are usually repeats but may differ in a detail not shown here. Equal entries are not always repeated. One block for each molecule: values may come before it. Non-standard residues stand in square brackets, D forms with d. TAMRA = tetramethylrhodamine label; pS = N[C@@H](COP(=O)(O)O)C(=O)O

How the values were obtained:
[1] = Solubility in aqueous buffers; format: physicochemical
[2] = target: T1, BRCA1 tBRCT (Homo sapiens, UniProt P38398); experiment: AlphaScreen assay: displacement of cognate biotinylated phosphopeptide from BRCA1 tBRCT; details: 10-point dose response, read-out: IC50, inhibition of binding of cognate phosphopeptide to BRCA1 tBRCT
T1 construct: BRCA1 tBRCT residues 1646-1859; made in house; host or cells: E. coli BL21(DE3)
Method: We tested 6x-Histidine-tagged BRCA1 tBRCT, TOPBP1 tBRCT 7/8 or GRB2 SH2, and their cognate biotinylated peptide substrates. Initial checkerboard titrations were carried out to determine the optimal concentration of protein and peptide for each screen. Assays were conducted in Costar 96-well flat bottom white polystyrene plates using assay buffer (20mM Tris buffer pH 7.4, 200mM NaCl, 0.05% Tween-20, 2mM DTT). 5x-working concentrations of the reagents were dispensed in 10μl each in the order: 6x-Histidine tagged protein, biotinylated peptide, test compound. Plates were incubated at room temperature for 20 min and 10 μl each of nickel chelate AlphaLISA® acceptor beads and AlphaScreen® Streptavidin donor beads (both from Perkin Elmer) at a final concentration of 20 μg/ml were added. Plates were covered with adhesive seals and incubated in the dark for 1 h at 25°C. The AlphaScreen® signal was read using TECAN infinite M1000 Pro microplate reader at excitation wavelength 680nm and emission wavelength 520-620nm. 1% DMSO controls were run in parallel, and used to calculate percent inhibition. A 10-point dose response was performed in triplicate to determine IC50 values for each compound.

[3] = target: T1, BRCA1 tBRCT; experiment: Competitive MST: inhibition of BACH1 phosphopeptide binding to BRCA1 tBRCT; details: for activity in competitive MST, in words / IC50: BACH1 phosphopeptide vs BRCA1 tBRCT; for IC50: MST, mean ± SD of three experiments, NB, no binding
Method: Protein domains used in the assay were labeled with NT-647-NHS fluorescent dye using the Monolith NT™ Protein Labeling Kit (NanoTemper Technologies). Assays were carried out in 20mM Tris buffer, pH 7.4, with 200mM NaCl, 0.05% Tween-20 and 2mM DTT. For the direct binding assay, 10μl of labeled protein at a final concentration of 20nM was mixed with 10μl of test compound and incubated on ice for 10 min. For the competitive assay, 10μl of labeled protein at a final concentration of 20nM was mixed with 2μM cognate peptide substrate at the EC80 concentration determined by prior titration using a 16-point serial dilution by direct-binding MST. For both assays, samples prepared as above were centrifuged at 15000 rpm at 4°C for 10 min and 4μl of the supernatant was loaded into premium glass capillaries (NanoTemper Technologies). MST analysis was performed at MST power of 40% and LED power of 80%, at 22°C temperature using a Monolith NT.115 (NanoTemper Technologies). An initial “Capillary Scan” was performed to scan for fluorescence across the length of the capillary tray to determine the exact position of each capillary before the MST measurement was started. Test compounds were assayed at 16 different concentrations by serial dilution, and data were analysed using NanoTemper analysis software. Kd values were determined using “T-jump + Thermophoresis” settings. The change in thermophoresis between different experimental conditions was expressed as the change in the normalized fluorescence (ΔFnorm), which is defined as Fhot/Fcold (F-values correspond to average fluorescence values between defined areas in the curve under steady-state conditions under control (Fcold) or experimental (Fhot) conditions. Titration of the non-fluorescent ligand causes a gradual change in thermophoresis, which is plotted as ΔFnorm to yield a binding curve, which was then fitted to derive binding constants.

[4] = tested on: BRCT domain of poly-ADP ribose polymerase; design: method as in Na et al., 2015; details: ref Na et al., 2015; cited from earlier work
[5] = target: T2, human BRCA1 tandem BRCT domain (residues 1646-1859) (human, UniProt P38398-1 1646-1859, NT-647-NHS fluorescent dye (in the MST assays only)); experiment: fluorescence polarisation; 75 nM BRCA1 tBRCT and 10 nM TAMRA-labelled BACH1 peptide, with compound at 125 uM; 20 mM Tris pH 7.4, 200 mM NaCl, 0.05% Tween-20, 2 mM DTT; room temperature; details: both partners purified
T2 construct: BRCA1, human, tandem BRCT domain, residues 1646-1859; Synthetic gene in pET28a, codon optimised for E. coli; No removal of the His tag is described; also called BRCA1 tBRCT; 6x His-BRCA1 tBRCT; source: E. coli BL21(DE3), purified (HisTrap HP, Superdex-75 gel filtration); not shown: His6, N-terminal, kept
T2 sequence (P38398 1646-1859): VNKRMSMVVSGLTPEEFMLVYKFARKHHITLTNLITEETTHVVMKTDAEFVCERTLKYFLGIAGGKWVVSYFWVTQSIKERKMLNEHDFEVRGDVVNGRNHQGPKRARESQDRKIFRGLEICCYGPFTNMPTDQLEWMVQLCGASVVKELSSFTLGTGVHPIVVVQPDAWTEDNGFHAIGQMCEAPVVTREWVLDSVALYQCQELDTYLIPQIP

T1 sequence (P38398 1646-1859): as above

solubility in aqueous buffers [1]: limited solubility | IC50 [2]: 47.3 µM
Molecule: Cc1nc2cc(C(=O)N3CCN(Cc4ccccc4F)CC3C(C)C)ccc2[nH]1 (stereo not drawn) [CCBT002, (4-(2-fluorobenzyl)-2-isopropylpiperazin-1-yl) (2-methyl-1H-benzo[d]imidazol-5-yl)methanone]

activity in competitive MST, in words [3]: abrogated activity
Molecule: CC(C)c1nc2ccc(C(=O)N3CCN(Cc4ccccc4F)CC3)cc2[nH]1 [CCBT2009, (4-(2-fluorobenzyl)piperazin-1-yl) (2-isopropyl-1H-benzo[d]imidazol-6-yl) methanone]

activity in competitive MST, in words [3]: abolishes activity
Molecule: CC(C)CN1CCN(C(=O)c2ccc3[nH]c(-c4ccccc4)nc3c2)CC1 [CCBT2047, (4-isobutylpiperazin-1-yl)(2-phenyl-1H-benzo[d]imidazol-5-yl) methanone]

IC50 [3]: 0.315 ± 0.18 µM | decrease in activity relative to Bractoppin ([3]; competitive MST): 5 fold
Molecule: O=C(c1ccc2[nH]c(-c3ccncc3)nc2c1)N1CCN(Cc2ccccc2F)CC1 [CCBT2082, (4-(2-fluorobenzyl)piperazin-1-yl)(2-(pyridin-4-yl)-1H-benzo[d]imidazol-5-yl)methanone]

activity in competitive MST, in words [3]: abrogated activity
Molecule: O=C(c1ccc2[nH]c(N3CCOCC3)nc2c1)N1CCN(Cc2ccccc2F)CC1 [CCBT2084, (4-(2-fluorobenzyl)piperazin-1-yl)(2-morpholino-1H-benzo[d]imidazol-5-yl) methanone]

IC50 [3]: 3.6 µM
Molecule: O=C(c1ccc2nc(-c3ccccc3)[nH]c2c1)N1CCN(Cc2ccc(O)cc2)CC1 [CCBT2106, (4-(4-hydroxybenzyl)piperazin-1-yl)(2-phenyl-1H-benzo[d]imidazole-6-yl)methanone]

IC50 [3]: 0.3 µM
Molecule: Cc1ccc(CN2CCN(C(=O)c3ccc4nc(-c5ccccc5)[nH]c4c3)CC2)cc1 [CCBT2107, (4-(4-methylbenzyl)piperazin-1-yl)(2-phenyl-1H-benzo[d]imidazol-6-yl)methanone]

IC50 [3]: 56 µM
Molecule: Cc1nc2cc(C(=O)N3CCN(Cc4ccccc4F)C[C@H]3C(C)C)ccc2[nH]1 [CCBT2905, (R)-(4-(2-fluorobenzyl)-2-isopropylpiperazin-1-yl)(2-methyl-1H-benzo[d]imidazol-5-yl)methanone]

IC50 [3]: 1.7 µM
Molecule: Cc1nc2cc(C(=O)N3CCN(Cc4ccccc4F)C[C@@H]3C(C)C)ccc2[nH]1 [CCBT2906]

IC50 [3]: > 53 µM and ~53 µM
Molecule: Cc1nc2cc(C(=O)N3CCN(Cc4ccccc4F)CC3)ccc2[nH]1 [CCBT2907, (4-(2-fluorobenzyl)piperazin-1-yl)(2-methyl-1H-benzo[d]imidazol-5-yl)methanone]

activity in competitive MST, in words [3]: inactive
Molecule: Cc1nc2cc(CN3CCN(Cc4ccccc4F)CC3)ccc2[nH]1 [CCBT2908, 5-((4-(2-fluorobenzyl)piperazin-1-yl)methyl)-2-methyl-1H-benzo[d]imidazole]

Molecule: Cc1cc2c(C(C)C)c(O)c(O)c(C=O)c2c(O)c1-c1c(C)cc2c(C(C)C)c(O)c(O)c(C=O)c2c1O [Gossypol]
binding to the BRCT domain of poly-ADP ribose polymerase [4]: reported to bind

binding result [5]: binds
B1: TAMRA-labelled phosphopeptide from BACH1 (TAMRA_GGSRSTpSPTFNK-NH2) (peptide)
peptide: {TAMRA}-GGSRST[pS]PTFNK-NH2
notes: two added glycines before the BACH1 stretch; stretch around the Ser990 phosphosite; the helicase BRIP1 is meant; also called TAMRA-labeled BACH1 peptide; source: synthetic peptide, bought: Designer Bioscience
